Key:
pyruvate carboxylase [1] = assay: Controls for the continuous pyruvate carboxylate assay; assay type: biochemical, Corynebacterium glutamicum; conditions: complete mixture + biotin (complete mixture alone 0.30)
Description: For determination of pyruvate carboxylate activity, the assay mixture contained 10 mM pyruvic acid, 14 mM KHCO3, 4 mM MgCl2, 1.75 mM ATP, 50 μmole acetyl-CoA, 0.3 mg bovine serum albumin, 0.055 U citrate synthase and 50 mM sodium phosphate buffer ([pH 7.5] containing 0.1 mg 5,5′-Dithio-bis(2-nitrobenzoic acid) (DTNB)) in a final volume of 1 ml. The reaction was started at 30° C. with the addition of 10 μl of the permeabilized cell suspension, and the formation of DTNB-thiophenolate was followed over time at 412 nm. Relevant standards and controls were carried out in the same manner.
(§1) To account for the intrinsic loss of OAA during the experiment, a continuous assay was carried out by coupling the two-reaction assay to a one-reaction assay in presence of an excess of citrate synthase. The amount of permeabilized cells added in the assay was optimized to obtain a detectable activity, with the lowest possible background absorbency due to the presence of cells.
To confirm that the continuous assay specifically detected pyruvate carboxylase activity, controls were carried out by assaying for activity in absence of each reaction component (Table 1). Using these controls, the detected activity was determined to be a carboxylation reaction requiring pyruvate, Mg and ATP.

[2] = system: pyruvate carboxylase from NRRL B-11474; assay: Effect of aspartate, ATP and acetyl-CoA on pyruvate carboxylase activity, strain NRRL B-11474; assay type: biochemical, Corynebacterium glutamicum
Description: (§2) Pyruvate carboxylate and phosphoenol pyruvate carboxylate assays were performed with permeabilized cells prepared by the following method. Log phase cells were harvested by centrifugation for 10 min at 5000×g at 4° C. and washed with 20 ml of the ice-cold washing buffer (50 mM Tris/HCl [pH 6.3] containing 50 mM NaCl). The cell pellet was resuspended in an ice-cold Hepes buffer (100 mM Hepes [pH 7.5] containing 20% Glycerol) to reach a final concentration of 25 g dry cell weight/liter. Resuspended cells were permeabilized by adding 30 μl of a 10% Hexadecyltrimethyl-ammonium bromide (CTAB) (w/v) solution to 1 ml of cells to give a final concentration of 0.3% (CTAB)(v/v). […]
(§3) Pyruvate carboxylase activity was determined as a function of various concentrations of its substrates: pyruvate, bicarbonate and ATP (FIG. 3). Based on the data generated, the affinity constants of pyruvate carboxylase for its substrates were determined (Table 2). […]
(§4) Aspartate inhibits phosphoenol pyruvate carboxylase (PEPC) activity. To determine the effect of aspartate on the activity of pyruvate carboxylase, aspartate was added at different concentrations in the spectrophotometer cuvette and enzyme activities were measured. […]
(§5) Pyruvate carboxylase activity was measured in the presence of different concentrations of acetyl-CoA (FIG. 6). […]

[3] = biological target: T1, Corynebacterium glutamicum ATCC 21253 pyruvate carboxylase, wild type, SEQ ID NO:19 (Corynebacterium glutamicum, UniProt H7C7K2); assay: Continuous pyruvate carboxylase assay (permeabilized cells), ATCC 21253; assay type: biochemical
T1 construct: coupled citrate synthase/DTNB assay
T1 sequence (H7C7K2 1-1140): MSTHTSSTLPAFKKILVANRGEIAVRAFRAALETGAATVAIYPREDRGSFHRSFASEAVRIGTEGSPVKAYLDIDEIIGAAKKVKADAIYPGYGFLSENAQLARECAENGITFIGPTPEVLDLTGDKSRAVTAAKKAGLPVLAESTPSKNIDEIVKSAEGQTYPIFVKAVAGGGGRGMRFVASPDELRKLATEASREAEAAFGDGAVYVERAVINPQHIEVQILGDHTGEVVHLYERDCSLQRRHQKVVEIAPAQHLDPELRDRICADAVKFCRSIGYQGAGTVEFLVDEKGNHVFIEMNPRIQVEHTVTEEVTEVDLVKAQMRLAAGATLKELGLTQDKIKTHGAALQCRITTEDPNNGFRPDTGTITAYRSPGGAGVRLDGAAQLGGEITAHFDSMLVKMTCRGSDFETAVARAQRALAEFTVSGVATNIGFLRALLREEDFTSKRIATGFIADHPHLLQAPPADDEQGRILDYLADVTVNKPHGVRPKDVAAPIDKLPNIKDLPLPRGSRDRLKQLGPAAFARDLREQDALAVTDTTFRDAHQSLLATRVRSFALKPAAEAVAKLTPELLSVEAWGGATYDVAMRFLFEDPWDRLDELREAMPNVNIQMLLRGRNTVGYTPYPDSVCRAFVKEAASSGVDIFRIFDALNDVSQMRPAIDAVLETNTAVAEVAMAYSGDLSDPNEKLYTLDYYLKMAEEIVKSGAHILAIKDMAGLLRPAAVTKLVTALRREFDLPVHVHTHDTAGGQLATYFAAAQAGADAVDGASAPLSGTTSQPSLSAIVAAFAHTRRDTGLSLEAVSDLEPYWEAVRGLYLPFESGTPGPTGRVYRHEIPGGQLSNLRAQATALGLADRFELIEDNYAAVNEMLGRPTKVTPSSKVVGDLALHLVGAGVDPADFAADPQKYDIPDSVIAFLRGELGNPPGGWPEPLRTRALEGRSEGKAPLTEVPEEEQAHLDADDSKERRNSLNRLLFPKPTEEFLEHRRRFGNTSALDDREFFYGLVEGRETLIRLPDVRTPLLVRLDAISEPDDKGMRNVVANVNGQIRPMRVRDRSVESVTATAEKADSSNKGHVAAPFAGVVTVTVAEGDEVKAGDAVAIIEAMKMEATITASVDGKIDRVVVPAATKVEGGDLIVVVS
Description: as §2
(§6) Pyruvate carboxylase activity was determined as a function of various concentrations of its substrates: pyruvate, bicarbonate and ATP (FIG. 3). Based on the data generated, the affinity constants of pyruvate carboxylase for its substrates were determined (Table 2).
To determine the effect of aspartate on the activity of pyruvate carboxylase, aspartate was added at different concentrations in the spectrophotometer cuvette and enzyme activities were measured. […]
as §5

[4] = system: pyruvate carboxylase from ATCC 21253; assay: Effect of aspartate, ATP and acetyl-CoA on pyruvate carboxylase activity, strain ATCC 21253; assay type: biochemical, Corynebacterium glutamicum
Description: as §2, §3, §4, §5

[5] = biological target: Corynebacterium glutamicum NRRL B-11474 (BF100) pyruvate carboxylase, feedback-resistant variant (M1V, E153D, A182S, A206S, H227R, A455G, D1120E), SEQ ID NO:2 (Corynebacterium glutamicum, UniProt H7C7K2, A182S/A206S/A455G/D1120E/E153D/H227R/M1V)
Description: Pyruvate carboxylate and phosphoenol pyruvate carboxylate assays were performed with permeabilized cells prepared by the following method. Log phase cells were harvested by centrifugation for 10 min at 5000×g at 4° C. and washed with 20 ml of the ice-cold washing buffer (50 mM Tris/HCl [pH 6.3] containing 50 mM NaCl). The cell pellet was resuspended in an ice-cold Hepes buffer (100 mM Hepes [pH 7.5] containing 20% Glycerol) to reach a final concentration of 25 g dry cell weight/liter. Resuspended cells were permeabilized by adding 30 μl of a 10% Hexadecyltrimethyl-ammonium bromide (CTAB) (w/v) solution to 1 ml of cells to give a final concentration of 0.3% (CTAB)(v/v).
The reaction was started at 30° C. with the addition of 10 μl of the permeabilized cell suspension, and the formation of DTNB-thiophenolate was followed over time at 412 nm. Relevant standards and controls were carried out in the same manner.
as §1, §6
To determine the effect of aspartate on the activity of pyruvate carboxylase, aspartate was added at different concentrations in the spectrophotometer cuvette and enzyme activities were measured. As a comparison, the same experiment was carried out with PEPC in ATCC 21253 (FIG. 5).
Pyruvate carboxylase activity was measured in the presence of different concentrations of acetyl-CoA (FIG. 6). […] The effect of acetyl-CoA on citrate synthase itself was studied also.

citrate synthase = assay: Effect of acetyl-CoA on citrate synthase; assay type: biochemical; conditions: acetyl-CoA on citrate synthase itself
Description: Pyruvate carboxylase activity was measured in the presence of different concentrations of acetyl-CoA (FIG. 6). Pyruvate carboxylase activity in both strains increased with increasing acetyl-CoA concentrations. The effect of acetyl-CoA on citrate synthase itself was studied also. […] Therefore, the increasing activity of pyruvate carboxylase with increasing acetyl-CoA concentration is the result of acetyl-CoA activating pyruvate carboxylase.

CC(=O)C(=O)O = assay: purified protein, by the assay type; conditions: other: permeabilized cells, pH 7.5, 30° C.
Description: (§7) To account for the intrinsic loss of OAA during the experiment, a continuous assay was carried out by coupling the two-reaction assay to a one-reaction assay in presence of an excess of citrate synthase. […]

[6] = system: Nc1ncnc2c1ncn2[C@@H]1O[C@H](COP(=O)(O)OP(=O)(O)OP(=O)(O)O)[C@@H](O)[C@H]1O; assay: purified protein, by the assay type; conditions: other: permeabilized cells, pH 7.5, 30° C.
Description: as §7

pyruvate carboxylase [7] = assay: Continuous pyruvate carboxylase assay with permeabilized cells: affinity constants for substrates and basal activity; assay type: biochemical, Corynebacterium glutamicum; conditions: NRRL B-11474 versus ATCC 21253
[8] = ATP above a concentration of 2 mM
[9] = different concentrations of acetyl-CoA

Molecule: O=C(O)CCCC[C@@H]1SC[C@@H]2NC(=O)N[C@@H]21 [biotin]
- Detected Activity (pyruvate carboxylase [1]): 0.35 Abs/min.mg DCW

Molecule: Nc1ncnc2c1ncn2[C@@H]1O[C@H](COP(=O)(O)OP(=O)(O)OP(=O)(O)O)[C@@H](O)[C@H]1O [ATP, adenosine triphosphate]
- ATP concentration above which activity is inhibited [2]: > 2 mM
- inhibition of pyruvate carboxylase activity by ATP [3, 8]: inhibited
- ATP concentration above which activity is inhibited [4]: > 2 mM
- inhibition of pyruvate carboxylase activity by ATP [5, 8]: inhibited

Molecule: CC(=O)SCCNC(=O)CCNC(=O)[C@H](O)C(C)(C)COP(=O)(O)OP(=O)(O)OC[C@H]1O[C@@H](n2cnc3c(N)ncnc32)[C@H](O)[C@@H]1OP(=O)(O)O [acetyl-CoA]
- pyruvate carboxylase activity with increasing acetyl-CoA concentrations [2, 9]: increased
- pyruvate carboxylase activity with increasing acetyl-CoA concentrations [4, 9]: increased
- Km (citrate synthase): 10 µM

Molecule: O=C(O)O [HCO3−, bicarbonate]
- Km ([3]; permeabilized cells, pH 7.5, 30° C., read-out: KM(HCO3−)): 2900 ± 800 µM
- Km ([5]; read-out: KM(HCO3−), permeabilized cells, pH 7.5, 30° C.): 14400 ± 4000 µM

Molecule: Corynebacterium glutamicum NRRL B-11474 (BF100) pyruvate carboxylase, feedback-resistant variant (M1V, E153D, A182S, A206S, H227R, A455G, D1120E), SEQ ID NO:2 (Corynebacterium glutamicum ATCC 13032; A182S/A206S/A455G/D1120E/E153D/H227R/M1V)
- Km (CC(=O)C(=O)O): 1300 ± 300 µM
- Km [6]: 400 ± 100 µM

B1: Pyc: feedback-resistant pyruvate carboxylase (SEQ ID NO:2) from Corynebacterium glutamicum NRRL B-11474, also known as BF100 (protein)
chain: MTAITLGGLLLKGIITLVSTHTSSTLPAFKKILVANRGEIAVRAFRAALETGAATVAIYPREDRGSFHRSFASEAVRIGTEGSPVKAYLDIDEIIGAAKKVKADAIYPGYGFLSENAQLARECAENGITFIGPTPEVLDLTGDKSRAVTAAKKAGLPVLAESTPSKNIDDIVKSAEGQTYPIFVKAVAGGGGRGMRFVSSPDELRKLATEASREAEAAFGDGSVYVERAVINPQHIEVQILGDRTGEVVHLYERDCSLQRRHQKVVEIAPAQHLDPELRDRICADAVKFCRSIGYQGAGTVEFLVDEKGNHVFIEMNPRIQVEHTVTEEVTEVDLVKAQMRLAAGATLKELGLTQDKIKTHGAALQCRITTEDPNNGFRPDTGTITAYRSPGGAGVRLDGAAQLGGEITAHFDSMLVKMTCRGSDFETAVARAQRALAEFTVSGVATNIGFLRALLREEDFTSKRIATGFIGDHPHLLQAPPADDEQGRILDYLADVTVNKPHGVRPKDVAAPIDKLPNIKDLPLPRGSRDRLKQLGPAAFARDLREQDALAVTDTTFRDAHQSLLATRVRSFALKPAAEAVAKLTPELLSVEAWGGATYDVAMRFLFEDPWDRLDELREAMPNVNIQMLLRGRNTVGYTPYPDSVCRAFVKEAASSGVDIFRIFDALNDVSQMRPAIDAVLETNTAVAEVAMAYSGDLSDPNEKLYTLDYYLKMAEEIVKSGAHILAIKDMAGLLRPAAVTKLVTALRREFDLPVHVHTHDTAGGQLATYFAAAQAGADAVDGASAPLSGTTSQPSLSAIVAAFAHTRRDTGLSLEAVSDLEPYWEAVRGLYLPFESGTPGPTGRVYRHEIPGGQLSNLRAQATALGLADRFELIEDNYAAVNEMLGRPTKVTPSSKVVGDLALHLVGAGVDPADFAADPQKYDIPDSVIAFLRGELGNPPGGWPEPLRTRALEGRSEGKAPLTEVPEEEQAHLDADDSKERRNSLNRLLFPKPTEEFLEHRRRFGNTSALDDREFFYGLVEGRETLIRLPDVRTPLLVRLDAISEPDDKGMRNVVANVNGQIRPMRVRDRSVESVTATAEKADSSNKGHVAAPFAGVVTVTVAEGDEVKAGDAVAIIEAMKMEATITASVDGKIERVVVPAATKVEGGDLIVVVS
- basal pyruvate carboxylase activity relative to ATCC 21253 (pyruvate carboxylase [7]): about 5 times

Source: patent US6965021B2, “Feedback-resistant pyruvate carboxylase gene from corynebacterium” (Archer-Daniels-Midland Company, priority 2000, dated 2005)
